Consider seven compounds from patent US11648248B1 (King Abdulaziz University, priority 2022, dated 2023).

≈ marks a conversion by molar mass, not a printed value. Read-outs that look alike come from different tables or passages of the source.

Assay type in all cases: cell-based
The subject of one assay is Gram-positive bacteria. The assay can be described thus: Bacteriostatic or bactericidal by MBC versus MIC. Particulars: MBC less than or at least three-fold the MIC. From the text:
(§1) Based upon the initial results obtained, the active compounds were further screened against additional clinical isolates of methicillin-sensitive S. aureus (MSSA), methicillin-resistant S. aureus (MRSA), vancomycin-resistant S. aureus (VRSA), Staphylococcus epidermidis, vancomycin-resistant Enterococcus faecium (VRE), vancomycin-resistant Enterococcus faecalis (VRE) and Streptococcus pneumoniae, as presented in Table 2. Additionally, we examined whether the compounds were bacteriostatic (inhibit bacteria from growing) or bactericidal (kill bacteria) by determining the minimum bactericidal concentration (MBC). The MBC was determined by plating 5 μL from each well where no growth was present (in the MIC plates) onto tryptic soya agar plates and incubating plates at 37° C. for 24 hours. The MBC was categorized as the lowest concentration that generated a 99.9% reduction in bacterial colony-forming units (Table 3).

The next assay deals with C. albicans (ATCC 64124). The assay can be described thus: MIC broth microdilution, initial screening. Particulars: Candida albicans, read-out: minimum inhibitory concentration (MIC) C. albicans (ATCC 64124). As to the method:
(§2) The minimum inhibitory concentrations (MICs) of the tested compounds and control drugs (linezolid, vancomycin, gentamicin (antibiotics) and fluconazole and 5-fluorocytosine (5-FC) (antifungal drugs)) were determined using the broth microdilution method, according to guidelines outlined by the Clinical and Laboratory Standards Institute (CLSI, Clinical and Laboratory Standards Institute, Methods for antimicrobial susceptibility testing of anaerobic bacteria; approved standard, M11-A8. 8th ed., 2012; CLSI, Clinical and Laboratory Standards Institute. M27-A3 Reference Method for Broth Dilution Antifungal Susceptibility Testing of Yeasts; Approved Standard—Third Edition, Wayne, Pa., 2008) against clinically-relevant bacterial (methicillin-resistant Staphylococcus aureus (MRSA), Escherichia coli, and C. difficile strains) and fungal (Candida albicans) strains. S. aureus and E. coli were grown aerobically overnight on tryptone soy agar plates at 37° C. C. difficile was grown anaerobically on brain heart infusion supplemented agar at 37° C. for 48 hours. C. albicans was grown aerobically overnight on yeast peptone dextrose (YPD) agar plate at 35° C. Afterwards, a bacterial solution equivalent to 0.5 McFarland standard was prepared and diluted in cation-adjusted Mueller-Hinton broth (CAMHB) (for S. aureus and E. coli) to achieve a bacterial concentration of about 5×10^5 CFU/mL. C. difficile was diluted in brain heart infusion supplemented broth, supplemented with yeast extract, hemin and vitamin K to achieve a bacterial concentration of about 5×10^5 CFU/mL. C. albicans was diluted in Roswell Park Memorial Institute (RPMI 1640) medium with glutamine and without bicarbonate (GIBCO by Life Technologies, Green Island, N.Y., USA) which was buffered to pH 7.0 with 0.165 M of [3-(N-morpholino) propanesulfonic acid] (MOPS) (DOT Scientific Inc., Burton, Mich., USA) to achieve a fungal concentration of about 1.5×10^3 CFU/mL. Compounds and control drugs were added in the first row of the 96-well plates and serially diluted with the corresponding media containing bacteria. Plates were then incubated aerobically at 37° C. for 18-20 hours (for S. aureus and E. coli). C. difficile was incubated anaerobically at 37° C. for 48 hours. C. albicans was incubated aerobically at 37° C. for 24 hours.
(§3) The minimum inhibitory concentrations (MICs) of the tested compounds and control drugs; linezolid, vancomycin, gentamicin (antibiotics) and fluconazole and 5-fluorocytosine (5-FC) (antifungal drugs) were determined using the broth microdilution method, according to guidelines outlined by the Clinical and Laboratory Standards Institute (CLSI)^1, 2, 3 against clinically-relevant bacterial (methicillin-resistant Staphylococcus aureus (MRSA), Escherichia coli and Clostridium difficile strains) and fungal (Candida albicans) strain. S. aureus and E. coli were grown aerobically overnight on tryptone soy agar plates at 37° C. C. difficile was grown anaerobically on brain heart infusion supplemented agar at 37° C. for 48 hours. C. albicans was grown aerobically overnight on yeast peptone dextrose (YPD) agar plate at 35° C. Afterwards, a bacterial solution equivalent to 0.5 McFarland standard was prepared and diluted in cation-adjusted Mueller-Hinton broth (CAMHB) (for S. aureus and E. coli) to achieve a bacterial concentration of about 5×10^5 CFU/mL. C. difficile was diluted in brain heart infusion supplemented broth, supplemented with yeast extract, hemin and vitamin K to achieve a bacterial concentration of about 5×10^5 CFU/mL. C. albicans was diluted in Roswell Park Memorial Institute (RPMI 1640) medium with glutamine and without bicarbonate (GIBCO by Life Technologies, Green Island, N.Y., USA) which was buffered to pH 7.0 with 0.165 M of [3-(N-morpholino) propanesulfonic acid]

For assay [1], the system named is Escherichia coli BW25113 (wild-type). The assay can be described thus: MIC broth microdilution, initial screening. As to conditions: Escherichia coli, E. coli BW25113, 18-20 hours, read-out: minimum inhibitory concentration (MIC) E. coli (Wild-type). The procedure:
as §2, §3

Assay [2] relates to Escherichia coli JW55031 (TolC mutant). Nature of the assay: MIC broth microdilution, initial screening. As to conditions: Escherichia coli, read-out: minimum inhibitory concentration (MIC) E. coli (TolC mutant), E. coli JW55031, 18-20 hours. The procedure:
as §2, §3

The subject of assay [3] is Methicillin-resistant Staphylococcus aureus NRS384 (MRSA USA300). The assay can be described thus: MIC broth microdilution, initial screening. The procedure: as §2, §3
In assay [4] the test system is Clostridium difficile (ATCC-BAA1870). Nature of the assay: MIC broth microdilution, initial screening. Particulars: Clostridioides difficile, ATCCBAA1870, 48 h. As to the method:
as §2, §3

The subject of assay [5] is Methicillin-sensitive Staphylococcus aureus ATCC-6538 (MSSA ATCC-6538). Nature of the assay: MBC by plating from MIC wells. As to conditions: read-out: MBC MSSA ATCC-6538.
Excerpt: as §1

The subject of assay [6] is Cephalosporin-resistant Streptococcus pneumoniae ATCC-15916. Nature of the assay: MBC by plating from MIC wells.
Excerpt: as §1

Assay [7] has as its system Cephalosporin-resistant Streptococcus pneumoniae ATCC-700677. Nature of the assay: MBC by plating from MIC wells.
Excerpt: as §1

For assay [8], the system named is Methicillin-resistant Staphylococcus aureus (MRSA NRS-123, USA400). Nature of the assay: MBC by plating from MIC wells. As to conditions: read-out: MBC MRSA NRS123 (USA400).
Excerpt: as §1

[9] abbreviates: read-out: minimum inhibitory concentration (MIC) S. aureus (MRSA USA300), MRSA NRS384 (USA300), broth microdilution, 18-20 hours.
Where [10] appears, read: read-out: minimum inhibitory concentration (MIC) C. difficile (ATCC-BAA1870), anaerobic, 48 hours.
Where [11] appears, read: ATCC15916, 99.9% reduction in CFU, read-out: MBC S. pneumoniae ATCC-15916.
Where [12] appears, read: ATCC700677, 99.9% reduction in CFU, read-out: MBC S. pneumoniae ATCC 700677.
Setting [13] is: MRSA NRS384 (USA300), broth microdilution, 18-20 hours, read-out: minimum inhibitory concentration (MIC) S. aureus (MRSA USA300).

Consider `O=C(Nc1ccc(Oc2ccc(=O)[nH]n2)cc1)Nc1ccc(Cl)c(C(F)(F)F)c1` [MY31, 1-(4-chloro-3-(trifluoromethyl)phenyl)-3-(4-((6-oxo-1,6-dihydropyridazin-3-yl)oxy)phenyl)urea], for which, in the assay on Gram-positive bacteria, the “bacteriostatic or bactericidal (MBC compared with MIC)” value is “bacteriostatic”. Further, the MIC with C. albicans (ATCC 64124) (ATCC64124, 24 h) was above 128 µg/mL; in assay [1] it was above 128 µg/mL; in assay [2], 0.5 µg/mL (≈ 1.18 µM); in [3] (setting [9]) it was 0.5 to 1 µg/mL (≈ 1.18 to 2.35 µM); in assay [4] (setting [10]), 0.5 to 1 µg/mL (≈ 1.18 to 2.35 µM). The MBC is above 64 µg/mL in assay [5] (99.9% reduction in CFU), 4 µg/mL (≈ 9.42 µM) in [6] (setting [11]), 2 µg/mL (≈ 4.71 µM) in [7] (setting [12]) and above 64 µg/mL in [8] (99.9% reduction in CFU).
Take `CNC(=O)c1cc(Oc2ccc(NC(=O)Nc3ccc(Cl)c(C(F)(F)F)c3)cc2)ccn1` [Sorafenib, reference compound]: the MIC with C. albicans (ATCC 64124) (ATCC64124, RPMI 1640, 24 hours) is above 128 µg/mL; in [1], above 128 µg/mL; in [2] it was 1 µg/mL (≈ 2.15 µM); in [3] (setting [13]) it was 4 µg/mL (≈ 8.61 µM); in [4] (anaerobic, 48 hours, read-out: minimum inhibitory concentration (MIC) C. difficile (ATCC-BAA1870)) it was 1 µg/mL (≈ 2.15 µM). Besides, the MBC in assay [5] (99.9% reduction in CFU), in assay [6] (setting [11]), in [7] (setting [12]) and in assay [8] (99.9% reduction in CFU) was above 64 µg/mL in each case.
In the case of `O=C(Nc1ccc(-c2ccc(=O)[nH]n2)cc1)Nc1ccc(Cl)c(Cl)c1` [MY21, 1-(3,4-dichlorophenyl)-3-(4-(6-oxo-1,6-dihydropyridazin-3-yl)phenyl)urea], in the assay with Gram-positive bacteria, the “bacteriostatic or bactericidal (MBC compared with MIC)” value was “bactericidal”. Also, the MIC in [3] (setting [9]) and in assay [4] (setting [10]) was 0.5 to 1 µg/mL (≈ 1.33 to 2.67 µM) each time. Besides, the MBC came to 4 µg/mL (≈ 10.7 µM) in assay [5] (99.9% reduction in CFU), 4 µg/mL (≈ 10.7 µM) in assay [6] (setting [11]), 4 µg/mL (≈ 10.7 µM) in assay [7] (setting [12]) and 8 µg/mL (≈ 21.3 µM) in assay [8] (99.9% reduction in CFU).
As for `O=C(Nc1cccc(Nc2ccc(Cl)nn2)c1)Nc1ccc(Cl)c(Cl)c1` [MY14, 1-(3-((6-chloropyridazin-3-yl)amino)phenyl)-3-(3,4-dichlorophenyl)urea], the MIC is above 128 µg/mL in the assay with C. albicans (ATCC 64124) (ATCC64124, 24 h); above 128 µg/mL in [1]; 2 µg/mL (≈ 4.89 µM) in assay [2]. For the same compound, the MBC in [5] (99.9% reduction in CFU) is 32 µg/mL (≈ 78.3 µM); in [6] (setting [11]) it was 64 µg/mL (≈ 157 µM); in [7] (setting [12]), above 64 µg/mL; in [8] (99.9% reduction in CFU), 8 µg/mL (≈ 19.6 µM).
Regarding `O=C(Nc1ccc(Oc2ccc(=O)[nH]n2)cc1)Nc1ccc(Cl)c(Cl)c1` [MY24, 1-(3,4-dichlorophenyl)-3-(4-((6-oxo-1,6-dihydropyridazin-3-yl)oxy)phenyl)urea], the “bacteriostatic or bactericidal (MBC compared with MIC)” value in the assay on Gram-positive bacteria is “bacteriostatic”. Further, the MIC with C. albicans (ATCC 64124) (ATCC64124, 24 h) is above 128 µg/mL; in assay [1] it was above 128 µg/mL; in assay [2], 1 µg/mL (≈ 2.56 µM); in assay [3] (setting [9]), 0.5 to 1 µg/mL (≈ 1.28 to 2.56 µM); in [4] (setting [10]) it was 0.5 to 1 µg/mL (≈ 1.28 to 2.56 µM). Also, the minimal bactericidal concentration (MBC) in assay [5] (99.9% reduction in CFU) was above 64 µg/mL; in assay [6] (setting [11]), 64 µg/mL (≈ 164 µM); in assay [7] (setting [12]), above 64 µg/mL; in assay [8] (99.9% reduction in CFU), above 64 µg/mL.
As to `CN[C@H](CC(C)C)C(=O)N[C@H]1C(=O)N[C@@H](CC(N)=O)C(=O)N[C@H]2C(=O)N[C@H]3C(=O)N[C@H](C(=O)N[C@H](C(=O)O)c4cc(O)cc(O)c4-c4cc3ccc4O)[C@H](O)c3ccc(c(Cl)c3)Oc3cc2cc(c3O[C@@H]2O[C@H](CO)[C@@H](O)[C@H](O)[C@H]2O[C@H]2C[C@](C)(N)[C@H](O)[C@H](C)O2)Oc2ccc(cc2Cl)[C@H]1O` [Vancomycin, reference compound], the MIC in assay [3] (read-out: minimum inhibitory concentration (MIC) S. aureus (MRSA USA300)) and in assay [4] (read-out: minimum inhibitory concentration (MIC) C. difficile (ATCC-BAA1870)) was 1 µg/mL (≈ 0.69 µM) throughout. The MBC in assay [5] turned out to be 2 µg/mL (≈ 1.38 µM); in assay [6] (ATCC15916, read-out: MBC S. pneumoniae ATCC-15916) it was 1 µg/mL (≈ 0.69 µM); in assay [7] (ATCC700677, read-out: MBC S. pneumoniae ATCC 700677), 2 µg/mL (≈ 1.38 µM); in [8] it was 2 µg/mL (≈ 1.38 µM).
In the case of `CC(=O)NC[C@H]1CN(c2ccc(N3CCOCC3)c(F)c2)C(=O)O1` [Linezolid, reference compound], the MIC in [1] was above 64 µg/mL; in [2] it was 8 µg/mL (≈ 23.7 µM); in assay [3] (setting [13]), 1 µg/mL (≈ 2.96 µM). In addition, the MBC came out at 8 µg/mL (≈ 23.7 µM) in assay [5] (99.9% reduction in CFU), 32 µg/mL (≈ 94.9 µM) in assay [6] (setting [11]), 16 µg/mL (≈ 47.4 µM) in assay [7] (setting [12]) and 64 µg/mL (≈ 190 µM) in assay [8] (99.9% reduction in CFU).
